According to patent US8076363B2, “Isothiazolone-containing preservative with improved effectiveness” (Air Liquide Sante (International), priority 2005, dated 2011):

Experiments:
[1] = tested on: mixed suspension of test germs (bacteria, yeasts, fungi); assay: Preserving effect under repeated inoculation in humectant formulation 6940; type: cell-based; parameters: key: −=no growth; ++=moderate growth; +++=massive growth
Description: B) Humectant Formulation 6940
In accordance with Seppic formulation procedure, without preservative.
(§1) Using the described method, the effectiveness of chemical preservatives is tested with regard to the pack preservation for cosmetic formulations. For this purpose, in various experimental batches, the preservatives to be investigated are added to the unpreserved samples in various concentrations. A continuous germ burden is achieved by periodically inoculating the experimental batches. In parallel to the inoculation, streaks of each of the individual batches are in each case made immediately beforehand. Assessment is made by reference to the microbial growth of the streaks.
The bacteria are streaked uniformly over the entire surface of a CS nutrient medium using a sterile glass rod and incubated for 24 h at 30±1° C. The yeast C. albicans is streaked using a sterile glass rod on a Sabouraud nutrient medium and incubated for 48 h at 30±1° C.
The fungi A. niger and P. funiculosum are streaked using a sterile glass rod on one (A. niger) or two (P. funiculosum) Sabouraud plates (comprising 100 μg/ml of gentamycin and 50 μg/ml of chloramphenicol) and incubated for 7 to 14 days at 25±2° C.
To prepare the mixed suspensions, the bacteria, per strain one plate, are rinsed off with 5 ml of a sterile 0.85% NaCl solution per CSA plate, (sterile) filtered through a sterile glass funnel containing glass wool and made up to 150 ml with 0.85% NaCl solution. This bacteria suspension has a titre of ˜10^10 CFU/ml.
The yeast C. albicans is likewise rinsed off with 10 ml of sterile 0.85% NaCl solution from a Sabouraud plate and (sterile) filtered through a sterile glass funnel containing glass wool. 10 ml of each of the fungi suspensions (A. niger and P. funiculosum) prepared as described above are added to this suspension. 3 ml of the bacteria suspension prepared as described above (titre ˜10^10 CFU/ml) are added. The resulting mixed suspension is made to 150 ml with sterile 0.85% NaCl solution.
The bacteria titre of the mixed suspension is ˜10^8 CFU/ml. The titre for C. albicans in the mixed suspension is ˜10^8 CFU/ml. The titre for A. niger and P. funiculosum in the mixed suspension is ˜10^6 CFU/ml.
In separate batches, 25 or 50 g of the material to be preserved are in each case admixed with varying concentrations of the preservative to be investigated. The growth control used in each case is an unpreserved product sample.
The test batches are streaked onto CS and Sabouraud nutrient media once per week, the first streaking being carried out directly prior to reinoculation; these batches are then inoculated with the mixed suspension (in the case of 25 g samples with 0.1 ml, in the case of 50 g samples with 0.2 ml). The inoculated samples are incubated at 25° C.±2° C. over the entire experimentation period.
The microbial growth of the streaks incubated at 25° C.±2° C. is assessed after 3 to 4 days. To be on the safe side, negative streaks are observed for a further 2 days and reassessed. The preserving effect of the individual product concentrations is assessed in a semiquantitative method by means of the growth of the individual streaks according to the grading from “−” via “+” to “+++”. The test is usually carried out over 6 inoculation cycles or terminated after massive growth (+++) on two occasions.
(§2) If even after five successive inoculation cycles growth can be detected neither in the preserved samples nor in the unpreserved product sample (blank value), then the inoculation in the sixth inoculation cycle is carried out with five times the amount of the mixed suspension (0.5 ml in the case of 25 g samples, 1 ml in the case of 50 g samples).
A preservative is considered good if it exists under the laboratory conditions given above for a period of 6 weeks without germ infestation of the sample batches, i.e. even after the sixth inoculation, no microbial growth can be detected.

[2] = tested on: mixed suspension of test germs (bacteria, yeasts, fungi); assay: Preserving effect under repeated inoculation in the standard gel; type: cell-based; parameters: key: −=no growth; −=slight growth; ++=moderate growth; +++=massive growth; details: preservative 0.1%
Description: CARBOPOL is dispersed in glycerol. In batches, the water and then NaOH are added thereto. The gel immediately becomes thick.
as §1, with “streaks. […]” for “streaks.”
The microbial growth of the streaks incubated at 25° C.±2° C. is assessed after 3 to 4 days. […] The preserving effect of the individual product concentrations is assessed in a semiquantitative method by means of the growth of the individual streaks according to the grading from “−” via “+” to “+++”. […]
as §2, with “samples). […]” for “samples).”

SMILES: CCCCC(CC)COCC(O)CO (centres unmarked) [SENSIVA, 1-(2-ethylhexyl) glycerol ether]
- microbial growth of the streaks ([1]; formulation 6940, preservative 0.1%, 4 days): −
- microbial growth of the streaks ([1]; formulation 6940, preservative 0.1%, 10 days): +++
- microbial growth of the streaks ([1]; formulation 6940, preservative 0.1%, 17 days): +++
- microbial growth of the streaks ([1]; formulation 6940, preservative 0.2%, 4 days): −
- microbial growth of the streaks ([1]; formulation 6940, preservative 0.2%, 10 days): +++
- microbial growth of the streaks ([1]; formulation 6940, preservative 0.2%, 17 days): +++
- microbial growth of the streaks ([1]; formulation 6940, preservative 0.3%, 4 days): −
- microbial growth of the streaks ([1]; formulation 6940, preservative 0.3%, 10 days): +++
- microbial growth of the streaks ([1]; formulation 6940, preservative 0.3%, 17 days): +++
- microbial growth of the streaks ([2]; 10 days): +++
- microbial growth of the streaks ([2]; 17 days): +++
